Data reported in patent US20060079696A1, “Substituted compounds derived from N-(benzyl)phenylacetamide, preparation and uses” (GENFIT, priority 2004, published 2006).

Legend:
Male Sprague-Dawley rats = test: Glycemia and insulinemia after oral administration in fasted rats; assay type: in vivo, rat; conditions: oral, fasted rat
Source text: In normal animals (as in man), the consequence of the administration of insulinotropic compounds is a significant increase in the plasmatic level of insulin. This induced hyperinsulinemia induces a reduction in glycemia. This example studies the evolution of glycemia and of insulinemia following oral administration of the inventive compounds in rats: the insulinotropic action of the compounds in vivo should induce a significant decrease of glycemia.
Male Sprague-Dawley rats (300-320 g) (CERJ—Le Genest St Isle-France) were used in order to carry out this experiment. The rats were fed with a standard diet of granular material; they had free access to food and drink and were kept in individual, ventilated cages in a 12 hr/12 hr light/dark rhythm. The animals were deprived of food for 16 hours prior to the experiment.
The compound was suspended in an aqueous carboxymethylcellulose solution (Sigma C4888) at 1% containing 0.1% Tween80 (Sigma P8074). The animals of the control group received the vehicle alone. The treated animals received a single administration of the compound (the suspension was administered by gavage at the rate of 10 ml/kg). Each group was made up of 11 animals. A 1st blood sample was taken by puncturing the retro-orbital sinus of the animals under volatile isoflurane anaesthesia: this sample makes up the initial time of the experiment. The substance or the vehicle were immediately administered to the animals by gavage, and blood samples were taken over time.
The animals' glycemia was measured in real time using a glucometer (Glucotrend2-Roche Diagnostic-France). The insulinemias were measured using an ELISA kit (Insulin Elisa Kit—Crystal Chem. USA). The method used was of the ELISA type: plasmatic insulin was specifically bound to anti-insulin monoclonal antibodies immobilised on the microtitration plate; simultaneously, an anti-insulin polyclonal guinea pig antibody was added to the reaction. The revelation of the reaction was guaranteed by an antibody coupled to peroxidase. These antibodies bind specifically to the guinea pig's immunoglobulins. The production of oxidised chromogen causes an increase in absorbance in proportion to the quantity of insulin present in the sample.

[1] = target: T1, ATP-dependent potassium channels (K+ATP) (Rattus norvegicus, UniProt Q09429); test: [3H]glibenclamide binding to ATP-dependent potassium channels of rat cerebral cortex; conditions: 1 h; 300 nM; specific displacement of [3H]glibenclamide 0.1 nM; read-out: KATP binding (300 nM)
T1 construct: the potassium channels derive from a rat's cerebral cortex; tissue CEREP; host or cells: rat cerebral cortex
In short: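 Rat cerebral cortex membranes incubated 1 h at 22° C with 0.1 nM [3H]glibenclamide; nonspecific binding defined with 1 μM unlabelled glibenclamide. Compounds tested at 3–300 nM; values are percent inhibition of specific binding.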

hPPARδ = target: T2, hPPARδ (Homo sapiens, UniProt Q03181); test: Gal4-hPPARδ chimera transactivation in COS-7 cells (luciferase); assay type: cell-based; conditions: induction factor standardised to an internal reference, read-out: % hGal4-PPAR transactivation (10 μM) delta
T2 construct: fragments of DNA amplified by PCR corresponding to the DEF domains of the human PPARα, PPARγ PPARδ nuclear receptors; expressed in transfected cells; host or cells: COS-7 (monkey kidney fibroblast line)
T2 sequence (Q03181 211-439 limits assumed): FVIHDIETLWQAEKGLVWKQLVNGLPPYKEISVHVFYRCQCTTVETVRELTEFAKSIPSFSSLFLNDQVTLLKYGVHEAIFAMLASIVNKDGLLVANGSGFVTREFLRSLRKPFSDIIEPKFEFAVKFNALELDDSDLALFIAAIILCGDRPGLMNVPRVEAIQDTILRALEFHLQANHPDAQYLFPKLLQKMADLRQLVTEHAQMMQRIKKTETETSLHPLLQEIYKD
In short: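 COS-7 cells transiently transfected with Gal4-DBD/human PPAR DEF-domain chimeras plus Gal4(RE)_TkpGL3 luciferase reporter (1/10 ratio), then exposed 24 h serum-free to compound at 10 μM. Luciferase induction factor over control, normalised to an internal reference per isoform, expressed as percent activation.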

T1 sequence (Q09429 whole entry): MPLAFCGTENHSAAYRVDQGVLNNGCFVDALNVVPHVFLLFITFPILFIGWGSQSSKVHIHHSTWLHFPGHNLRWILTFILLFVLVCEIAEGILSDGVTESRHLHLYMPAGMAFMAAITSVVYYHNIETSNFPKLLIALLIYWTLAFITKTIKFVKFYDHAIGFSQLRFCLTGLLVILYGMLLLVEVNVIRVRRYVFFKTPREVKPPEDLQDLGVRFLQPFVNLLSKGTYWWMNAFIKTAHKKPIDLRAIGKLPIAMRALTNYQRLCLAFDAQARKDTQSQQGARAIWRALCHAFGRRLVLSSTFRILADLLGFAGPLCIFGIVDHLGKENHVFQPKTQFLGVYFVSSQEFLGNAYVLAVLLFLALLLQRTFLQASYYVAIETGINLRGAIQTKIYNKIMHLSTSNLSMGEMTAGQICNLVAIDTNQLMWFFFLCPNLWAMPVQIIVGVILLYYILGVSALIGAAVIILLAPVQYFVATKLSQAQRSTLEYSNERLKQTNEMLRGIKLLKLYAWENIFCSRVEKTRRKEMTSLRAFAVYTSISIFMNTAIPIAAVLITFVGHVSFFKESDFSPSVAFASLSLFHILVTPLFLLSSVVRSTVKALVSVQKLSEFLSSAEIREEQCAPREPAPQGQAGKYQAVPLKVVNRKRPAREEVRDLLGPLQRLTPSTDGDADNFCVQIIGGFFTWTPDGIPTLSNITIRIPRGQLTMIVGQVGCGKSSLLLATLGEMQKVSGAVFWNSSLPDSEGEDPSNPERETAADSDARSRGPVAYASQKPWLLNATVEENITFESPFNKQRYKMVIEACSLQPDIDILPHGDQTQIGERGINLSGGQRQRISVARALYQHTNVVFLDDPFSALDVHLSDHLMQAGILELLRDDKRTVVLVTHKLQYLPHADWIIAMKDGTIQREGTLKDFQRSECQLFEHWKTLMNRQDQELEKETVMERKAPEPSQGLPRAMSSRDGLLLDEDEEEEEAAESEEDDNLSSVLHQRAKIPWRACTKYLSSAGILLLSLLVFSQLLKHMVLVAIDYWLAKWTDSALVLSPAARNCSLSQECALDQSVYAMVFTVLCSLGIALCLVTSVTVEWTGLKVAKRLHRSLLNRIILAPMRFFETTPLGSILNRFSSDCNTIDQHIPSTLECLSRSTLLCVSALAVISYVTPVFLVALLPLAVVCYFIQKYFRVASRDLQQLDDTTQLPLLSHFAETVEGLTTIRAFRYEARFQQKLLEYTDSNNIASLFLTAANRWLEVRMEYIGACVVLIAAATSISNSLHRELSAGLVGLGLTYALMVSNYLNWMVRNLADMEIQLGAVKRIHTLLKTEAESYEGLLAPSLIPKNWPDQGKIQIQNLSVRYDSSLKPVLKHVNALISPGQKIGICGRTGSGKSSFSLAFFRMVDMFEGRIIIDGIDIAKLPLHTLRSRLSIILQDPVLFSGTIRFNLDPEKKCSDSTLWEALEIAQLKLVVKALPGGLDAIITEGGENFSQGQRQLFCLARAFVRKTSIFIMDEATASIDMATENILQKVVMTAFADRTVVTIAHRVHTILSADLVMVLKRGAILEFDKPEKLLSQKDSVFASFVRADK
T1 sequence (P70673 whole entry partner): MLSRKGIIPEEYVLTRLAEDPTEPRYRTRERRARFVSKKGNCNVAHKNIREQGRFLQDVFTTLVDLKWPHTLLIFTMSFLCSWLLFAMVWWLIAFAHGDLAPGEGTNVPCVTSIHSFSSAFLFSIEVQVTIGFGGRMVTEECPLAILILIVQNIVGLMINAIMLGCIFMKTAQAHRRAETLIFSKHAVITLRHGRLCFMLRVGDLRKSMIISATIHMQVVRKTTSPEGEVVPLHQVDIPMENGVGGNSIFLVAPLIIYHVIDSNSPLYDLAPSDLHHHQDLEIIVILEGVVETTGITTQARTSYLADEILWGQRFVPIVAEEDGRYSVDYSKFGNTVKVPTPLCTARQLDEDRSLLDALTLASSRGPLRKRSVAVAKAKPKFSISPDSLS

- inhibition at 0.3 µM [1]: 83%
- activation at 10 µM (hPPARδ): < 10%
Structure (SMILES): CCCCC(NC(=O)Cc1ccc(OC(C)(C)C(=O)NS(C)(=O)=O)cc1)c1ccccc1N1CCCCC1 (stereo not shown) [Compound 52, N-[methylsulfonyl]-2-[4-[1-(1-(2-(1-piperidinyl)phenyl)pentyl)aminocarbonylmethyl]phenoxy]-2-methylpropanamide]
- decrease in glycemia between T=0 and T=120 min (Male Sprague-Dawley rats; 50 mpk): no measurable effect
- decrease in glycemia between T=0 and T=120 min (Male Sprague-Dawley rats; 500 mpk): 19%
